One series concerns TNFa in circulation. Description: LPS-induced inflammatory response in mice, TNFa in circulation. It counts as in vivo. The note with it: mice injected with LPS; subcutaneous administration; FIG. 1. The procedure:
FIG. 1 is a graph showing the level of TNF-α in serum of mice injected with LPS to induce inflammation and administered 2C-H or control vehicle.
(§1) In another experiment, mice were also injected with a toxic level of LPS to initiate a lethal septic event, which was attenuated by administration of 2C-H (FIG. 2).

The subject of series [1] is mice injected with a toxic level of LPS. In words: Lethal septic event after a toxic level of LPS in mice. It counts as in vivo. Particulars: FIG. 2. The procedure: FIG. 2 is a plot showing % mice that died after injection of a toxic level of LPS when administered 2C-H or vehicle control.
as §1

The test system of series [2] is mice. Description: Signs of hallucination in mice at increasing doses. Format: in vivo. Particulars: oral, FIG. 3. The protocol: FIG. 3 is a plot of % mice showing sign of hallucination at increasing doses of 2C-B.
(§2) Mice were administered increasing amounts of 2C-B to identify sub-hallucinogenic doses (FIG. 3). It was determined that a dose of 0.025 mg/kg can be orally administered to mice without showing any signs of hallucination. Mice were then administered 2C-B for increasing amounts of time, then placed on the EPM apparatus for 5 minutes and time spent on the open arms obtained. As it can be seen in FIG. 4, the sub-hallucinogenic dose of 2C-B was capable of reducing anxiety in mice.

Series [3] deals with mice. Description: EPM apparatus, time spent on the open arms (anxiety). It counts as in vivo. The note with it: sub-hallucinogenic dose, EPM for 5 minutes, compared to saline, FIG. 4. The procedure:
FIG. 4 is a graph showing the time spent on the open arm by mice treated with 2C-B for increasing amounts of time.
as §2

The conditions of series [4]: taken recreationally; cited from earlier work.

Each structure is given as a SMILES string.

With `COc1ccc(OC)c(CCN)c1` [2C-H], the “inflammatory response (measured by TNFa in circulation)” value with TNFa in circulation is listed as “quickly quelled”. The “lethal septic event (% mice that died)” value in series [1] is reported as “attenuated”.

On to `COc1cc(CCN)c(OC)cc1Br` [2C-B, 4-Bromo-2,5-dimethoxyphenethylamine], for which the “dose that can be orally administered without showing any signs of hallucination” value in the series on mice [2] worked out at 0.025 mg/kg. Further, the “time spent on the open arm” value in the series with mice [3] was “increased time spent on the open arm compared to saline”. In addition, the “threshold unit dose that can cause psychedelic activity” value in series [4] was “about 5 mg”.

As to `CCc1cc(OC)c(CCN)cc1OC` [2C-E, 4-Ethyl-2,5-dimethoxyphenethylamine], in series [4], the “threshold unit dose that can cause psychedelic activity” value is on record as “about 2 mg”.

For the molecule `COc1cc(CCN)c(OC)cc1I` [2C-I, 2-(4-lodo-2,5-dimethoxyphenyl)ethan-1-amine], the “threshold unit dose that can cause psychedelic activity” value in series [4] is “about 2 mg”.

The values above are taken from patent publication US20240335401A1, “SUBSTITUTED PHENETHYLAMINE FOR TREATING INFLAMMATION AND PSYCHOLOGICAL DISORDERS” (SYNAPTIVE THERAPEUTICS LLC, priority 2022, published 2024).
